The nature of the data set: Solubility of the hole-transfer agent in triglyceride oleate. As to conditions: 25° C., g per 100 g of triglyceride oleate. The data set is classed as physicochemical. From the text:
Here, the term “solubility in triglyceride oleate (% by weight)” means the amount of a solvent (hole-transfer agent) (g) with reference to 100 g of triglyceride oleate.
As to `CC(C)c1ccc(N(c2ccccc2)c2cccc(N(c3ccccc3)c3ccc(C(C)C)cc3)c2)cc1` [HTM-1], the “HTM Solubility” value came out at 11.1 w %. Under `CCc1cccc(C)c1N(c1ccccc1)c1ccc(/C=C/c2ccc(/C=C/c3ccc(N(c4ccccc4)c4c(C)cccc4CC)cc3)cc2)cc1` [HTM-8] stands 2.1 w %. Under `Cc1ccccc1N(c1ccc(-c2ccc(N(c3ccccc3C)c3ccccc3/C=C/c3ccccc3)cc2)cc1)c1ccccc1/C=C/c1ccccc1` [HTM-9] stands 37.0 w %; under `CCCCc1ccc(N(c2ccc(C)cc2)c2c(N(c3ccc(C)cc3)c3ccc(CCCC)cc3)c3ccccc3c3ccccc23)cc1` [HTM-10], 2.8 w %.

Values taken from patent publication US20070111118A1, “Electrophotographic photoconductor and image-forming apparatus” (priority 2005, published 2007).
